# Data reported in patent US20260297083A1, “SUBSTITUTED ACETYLENE COMPOUND DERIVATIVES AND THEIR PHARMACEUTICAL USE” (AVELOS THERAPEUTICS INC., priority 2023, published 2026).
# Tested on: DLD-1 BRCA2(−/−) Cell
# Assay: Cell viability assay (Resazurin) in DLD1-BRCA2 cells
# Format: cell-based
# Details: Homo sapiens, DLD-1, 336 h, 14 days, 1,500 cells/well, final DMSO 1%
# How it was run: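 DLD1-BRCA2 KG cells seeded at 1,500/well (parental 600/well) in RPMI-1640 with 10% FBS, compound added after 4 h (1% DMSO), media replaced every 3-4 days over 14 days at 37° C. Viability read by resazurin (0.1 mg/ml, 4 h) fluorescence at Ex/Em 560/590 nm; IC50 fitted.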
row,IC50 [µM],SMILES
1,< 1,"Cc1cc(C(F)(F)F)cc(N2[C@H](C(=O)N(CC#Cc3cccc(N4CCOCC4)n3)c3ccc(F)c(C)c3)CCS2(=O)=O)n1 [Example 86, (S)-N-(4-fluoro-3-methylphenyl)-2-(6-methyl-4-(trifluoromethyl)pyridin-2-yl)-N-(3-(6-morpholinopyridin-2-yl)prop-2-yn-1-yl)isothiazolidine-3-carboxamide 1,1-dioxide]"
2,< 1,"Cc1cc(C(F)(F)F)cc(N2C(=O)CC[C@H]2C(=O)N(CC#Cc2ccc(N)nn2)c2ccc(F)c(C)c2F)n1 [Example 2, (S)-N-(3-(6-aminopyridazin-3-yl)prop-2-yn-1-yl)-N-(2,4-difluoro-3-methylphenyl)-1-(6-methyl-4-(trifluoromethyl)pyridin-2-yl)-5-oxopyrrolidine-2-carboxamide]"
3,< 1,Cc1cc(C(F)(F)F)cc(N2[C@H](C(=O)N(CC#Cc3ccc(NC(C)C)nn3)c3ccc(F)c(C)c3)CCS2(=O)=O)n1 [Example 20]
4,< 1,"Cc1cc(C(F)(F)F)cc(N2[C@H](C(=O)N(CC#Cc3nccnc3C(N)=O)c3ccc(F)c(C)c3)CCS2(=O)=O)n1 [Example 64, (S)-N-(3-(3-carbamoylpyrazin-2-yl)prop-2-yn-1-yl)-N-(4-fluoro-3-methylphenyl)-2-(6-methyl-4-(trifluoromethyl)pyridin-2-yl)isothiazolidine-3-carboxamide 1,1-dioxide]"
5,1.1 to 5,Cc1cc(C(F)(F)F)cc(N2[C@H](C(=O)N(CC#Cc3ncc(N4CCOCC4)nc3N)c3ccc(F)c(C)c3)CCS2(=O)=O)n1 [Example 43]
6,< 1,"Cc1cc(C(F)(F)F)cc(N2[C@H](C(=O)N(CC#Cc3cccc(=O)n3C)c3ccc(F)c(C)c3)CCS2(=O)=O)n1 [Example 92, (S)-N-(4-fluoro-3-methylphenyl)-2-(6-methyl-4-(trifluoromethyl)pyridin-2-yl)-N-(3-(1-methyl-6-oxo-1,6-dihydropyridin-2-yl)prop-2-yn-1-yl)isothiazolidine-3-carboxamide 1,1-dioxide]"
7,< 1,"Cc1cc(C(F)(F)F)cc(N2[C@H](C(=O)N(CC#Cc3cnc(C(N)=O)c(C)n3)c3ccc(F)c(C)c3)CCS2(=O)=O)n1 [Example 62, (S)-N-(3-(5-carbamoyl-6-methylpyrazin-2-yl)prop-2-yn-1-yl)-N-(4-fluoro-3-methylphenyl)-2-(6-methyl-4-(trifluoromethyl)pyridin-2-yl)isothiazolidine-3-carboxamide 1,1-dioxide]"
8,1.1 to 5,"Cc1cc(C(F)(F)F)cc(N2[C@H](C(=O)N(CC#Cc3cnc(N4CCOCC4)c(C(F)(F)F)n3)c3ccc(F)c(C)c3)CCS2(=O)=O)n1 [Example 46, (S)-N-(4-fluoro-3-methylphenyl)-2-(6-methyl-4-(trifluoromethyl)pyridin-2-yl)-N-(3-(5-morpholino-6-(trifluoromethyl)pyrazin-2-yl)prop-2-yn-1-yl)isothiazolidine-3-carboxamide 1,1-dioxide]"
9,< 1,"Cc1cc(C(F)(F)F)cc(N2[C@H](C(=O)N(CC#Cc3cncc(C(N)=O)n3)c3ccc(F)c(C)c3)CCS2(=O)=O)n1 [Example 63, (S)-N-(3-(6-carbamoylpyrazin-2-yl)prop-2-yn-1-yl)-N-(4-fluoro-3-methylphenyl)-2-(6-methyl-4-(trifluoromethyl)pyridin-2-yl)isothiazolidine-3-carboxamide 1,1-dioxide]"
10,< 1,"Cc1cc(C(F)(F)F)cc(N2[C@H](C(=O)N(CC#Cc3cncc(C(=O)N4CC5CCC(C4)O5)n3)c3ccc(F)c(C)c3)CCS2(=O)=O)n1 [Example 71, (3S)-N-(3-(6-(8-oxa-3-azabicyclo[3.2.1]octane-3-carbonyl)pyrazin-2-yl)prop-2-yn-1-yl)-N-(4-fluoro-3-methylphenyl)-2-(6-methyl-4-(trifluoromethyl)pyridin-2-yl)isothiazolidine-3-carboxamide 1,1-dioxide]"
11,1.1 to 5,"Cc1cc(C(F)(F)F)cc(N2C(=O)CC[C@H]2C(=O)N(CC#CCN2CCN(c3cnccn3)CC2)c2ccc(F)c(C)c2F)n1 [Example 15, (S)—N-(2,4-difluoro-3-methylphenyl)-1-(6-methyl-4-(trifluoromethyl)pyridin-2-yl)-5-oxo-N-(4-(4-(pyrazin-2-yl)piperazin-1-yl)but-2-yn-1-yl)pyrrolidine-2-carboxamide]"
12,1.1 to 5,"Cc1cc(C(F)(F)F)cc(N2[C@H](C(=O)N(CC#Cc3cnc4c(c3)C(C)(C)N(C)C4=O)c3ccc(F)c(C)c3)CCS2(=O)=O)n1 [Example 99, (S)-N-(4-fluoro-3-methylphenyl)-2-(6-methyl-4-(trifluoromethyl)pyridin-2-yl)-N-(3-(5,5,6-trimethyl-7-oxo-6.7-dihydro-5H-pyrrolo[3,4-b]pyridin-3-yl)prop-2-yn-1-yl)isothiazolidine-3-carboxamide 1,1-dioxide]"
13,< 1,"CCN1CCN(c2ccc(C#CCN(C(=O)[C@@H]3CCS(=O)(=O)N3c3cc(C(F)(F)F)cc(C)n3)c3ccc(F)c(C)c3)nn2)CC1 [Example 24, (S)-N-(3-(6-(4-ethylpiperazin-1-yl)pyridazin-3-yl)prop-2-yn-1-yl)-N-(4-fluoro-3-methylphenyl)-2-(6-methyl-4-(trifluoromethyl)pyridin-2-yl)isothiazolidine-3-carboxamide 1,1-dioxide]"
14,< 1,"Cc1cc(C(F)(F)F)cc(N2[C@H](C(=O)N(CC#Cc3cnc(N4C[C@H](C)N[C@@H](C)C4)cn3)c3ccc(F)c(C)c3)CCS2(=O)=O)n1 [Example 52, (S)-N-(3-(5-((3S,5S)-3,5-dimethylpiperazin-1-yl)pyrazin-2-yl)prop-2-yn-1-yl)-N-(4-fluoro-3-methylphenyl)-2-(6-methyl-4-(trifluoromethyl)pyridin-2-yl)isothiazolidine-3-carboxamide 1,1-dioxide]"
15,< 1,"Cc1cc(C(F)(F)F)cc(N2[C@H](C(=O)N(CC#Cc3ccc(OC(F)F)nn3)c3ccc(F)c(C)c3)CCS2(=O)=O)n1 [Example 28, (S)-N-(3-(6-(difluoromethoxy)pyridazin-3-yl)prop-2-yn-1-yl)-N-(4-fluoro-3-methylphenyl)-2-(6-methyl-4-(trifluoromethyl)pyridin-2-yl)isothiazolidine-3-carboxamide 1,1-dioxide]"
16,< 1,"Cc1cc(C(F)(F)F)cc(N2[C@H](C(=O)N(CC#Cc3ccc(N4CCOCC4)cn3)c3ccc(F)c(C)c3)CCS2(=O)=O)n1 [Example 84, (S)-N-(4-fluoro-3-methylphenyl)-2-(6-methyl-4-(trifluoromethyl)pyridin-2-yl)-N-(3-(5-morpholinopyridin-2-yl)prop-2-yn-1-yl)isothiazolidine-3-carboxamide 1,1-dioxide]"
17,1.1 to 5,"Cc1cc(C(F)(F)F)cc(N2[C@H](C(=O)N(CC#Cc3ccc(C(N)=O)cc3)c3ccc(F)c(C)c3)CCS2(=O)=O)n1 [Example 105, (S)-N-(3-(4-carbamoylphenyl)prop-2-yn-1-yl)-N-(4-fluoro-3-methylphenyl)-2-(6-methyl-4-(trifluoromethyl)pyridin-2-yl)isothiazolidine-3-carboxamide 1,1-dioxide]"
18,< 1,"Cc1cc(C(F)(F)F)cc(N2[C@H](C(=O)N(CC#Cc3cccc(=O)[nH]3)c3ccc(F)c(C)c3)CCS2(=O)=O)n1 [Example 87, (S)-N-(4-fluoro-3-methylphenyl)-2-(6-methyl-4-(trifluoromethyl)pyridin-2-yl)-N-(3-(6-oxo-1,6-dihydropyridin-2-yl)prop-2-yn-1-yl)isothiazolidine-3-carboxamide 1,1-dioxide]"
19,< 1,"Cc1cc(C(F)(F)F)cc(N2[C@H](C(=O)N(CC#Cc3ccc(C#N)nc3)c3ccc(F)c(C)c3)CCS2(=O)=O)n1 [Example 115, (S)-N-(3-(6-cyanopyridin-3-yl)prop-2-yn-1-yl)-N-(4-fluoro-3-methylphenyl)-2-(6-methyl-4-(trifluoromethyl)pyridin-2-yl)isothiazolidine-3-carboxamide 1,1-dioxide]"
20,< 1,"Cc1cc(C(F)(F)F)cc(N2[C@H](C(=O)N(CC#Cc3ccc(F)cn3)c3ccc(F)c(C)c3)CCS2(=O)=O)n1 [Example 93, (S)-N-(4-fluoro-3-methylphenyl)-N-(3-(5-fluoropyridin-2-yl)prop-2-yn-1-yl)-2-(6-methyl-4-(trifluoromethyl)pyridin-2-yl)isothiazolidine-3-carboxamide 1,1-dioxide]"
21,< 1,"Cc1cc(C(F)(F)F)cc(N2[C@H](C(=O)N(CC#Cc3ncc(N4CCOCC4)cn3)c3ccc(F)c(C)c3)CCS2(=O)=O)n1 [Example 79, (S)-N-(4-fluoro-3-methylphenyl)-2-(6-methyl-4-(trifluoromethyl)pyridin-2-yl)-N-(3-(5-morpholinopyrimidin-2-yl)prop-2-yn-1-yl)isothiazolidine-3-carboxamide 1,1-dioxide]"
22,< 1,"Cc1cc(C(F)(F)F)cc(N2[C@H](C(=O)N(CC#Cc3cnc(C(=O)N(C)C)cn3)c3ccc(F)c(C)c3)CCS2(=O)=O)n1 [Example 68, (S)-N-(3-(5-(dimethylcarbamoyl)pyrazin-2-yl)prop-2-yn-1-yl)-N-(4-fluoro-3-methylphenyl)-2-(6-methyl-4-(trifluoromethyl)pyridin-2-yl)isothiazolidine-3-carboxamide 1,1-dioxide]"
23,< 1,"Cc1cc(C(F)(F)F)cc(N2C(=O)CC[C@H]2C(=O)N(CC#Cc2ccc(N)nn2)c2ccc(F)c(Cl)c2F)n1 [Example 4, (S)-N-(3-(6-aminopyridazin-3-yl)prop-2-yn-1-yl)-N-(3-chloro-2,4-difluorophenyl)-1-(6-methyl-4-(trifluoromethyl)pyridin-2-yl)-5-oxopyrrolidine-2-carboxamide]"
24,< 1,"Cc1cc(C(F)(F)F)cc(N2[C@H](C(=O)N(CC#Cc3cc(N4CCOCC4)nc(C(F)(F)F)n3)c3ccc(F)c(C)c3)CCS2(=O)=O)n1 [Example 76, (S)-N-(4-fluoro-3-methylphenyl)-2-(6-methyl-4-(trifluoromethyl)pyridin-2-yl)-N-(3-(6-morpholino-2-(trifluoromethyl)pyrimidin-4-yl)prop-2-yn-1-yl)isothiazolidine-3-carboxamide 1,1-dioxide]"
